The test system of test [1] is PSD-95 protein. The test is described as follows: Immunohistochemical staining of mouse brain tissue for PSD-95. In kind it is in vivo. Particulars: hippocampus of APP/PS1ΔE9 mice treated for 2 months (A-B in FIG. 3).
Test [2] relates to APP/PS1ΔE9 mice. Briefly: Open field experiment (anxiety symptoms). As to conditions: 2 months of administration. In kind it is in vivo, mouse. The protocol: Gemfibrozil was administered to 8-month-old APP/PS1ΔE9 mice (male and female halves). Gemfibrozil was first dissolved in dimethyl sulfoxide (DMSO) at a concentration of 50 mg/mL, and then diluted to a final concentration of 50 μg/mL with mouse drinking water to obtain a drug solution. The mice in the administration group were allowed to freely drink the drug solution containing gemfibrozil, in which the final concentration of DMSO in the solution was 0.1%; and the mice in the control group were allowed to drink water containing 0.1% DMSO freely. All drinking devices contained with Gemfibrozil were wrapped in aluminum foil to prevent decomposition by exposure. During dosing, the drug solution was replaced every 2 days. Mice were measured daily for water consumption. After 2 months of dosing, all mice were subjected to behavioural experiments. Mice were placed in the laboratory to be behaviourally tested one hour prior to the start of daily behavioural studies, and all behavioural experiments were completed between 9 and 17 o'clock. All experiments involving animals were approved by Animal Ethics Committee of the Kunming Institute of Zoology, CAS. We evaluated the anxiety symptom behavior of APP/PS1ΔE9 mice 2 months after administration of Gemfibrozil using an open field experiment. […]

Test [3] deals with astrocytes and microglia. The test is described as follows: Immunofluorescence staining of mouse brain tissue, glia co-localization with Aβ plaques. In kind it is in vivo. As to conditions: brain tissue of APP/PS1ΔE9 mice.
The test system of test [4] is APP/PS1ΔE9 mice. The test is described as follows: Water maze test of spatial learning and memory. In kind it is in vivo, mouse. The protocol: Gemfibrozil was administered to 8-month-old APP/PS1ΔE9 mice (male and female halves). Gemfibrozil was first dissolved in dimethyl sulfoxide (DMSO) at a concentration of 50 mg/mL, and then diluted to a final concentration of 50 μg/mL with mouse drinking water to obtain a drug solution. The mice in the administration group were allowed to freely drink the drug solution containing gemfibrozil, in which the final concentration of DMSO in the solution was 0.1%; and the mice in the control group were allowed to drink water containing 0.1% DMSO freely. All drinking devices contained with Gemfibrozil were wrapped in aluminum foil to prevent decomposition by exposure. During dosing, the drug solution was replaced every 2 days. Mice were measured daily for water consumption. After 2 months of dosing, all mice were subjected to behavioural experiments. Mice were placed in the laboratory to be behaviourally tested one hour prior to the start of daily behavioural studies, and all behavioural experiments were completed between 9 and 17 o'clock. All experiments involving animals were approved by Animal Ethics Committee of the Kunming Institute of Zoology, CAS. According to the application, a water maze experiment was adopted to evaluate the learning and memory capacity of AD mice after Gemfibrozil was administered for 2 months. The parameters of the used water maze were as follows: a circular pool having a diameter of 120 cm, a height of 50 cm, and a water depth of about 30 cm; and a cylindrical plastic lifesaving platform having a diameter of 10 cm, a height of 29 cm, and submerged 1 cm below the water surface. The water temperature was kept at 20+1° C. During the test, in order to prevent the mice from seeing the platform, white plastic foam was added to the water to spread on the water surface evenly until the lifesaving platform could not be seen, and the water was replaced every two days. The circular pool was divided into four quadrants, and the lifesaving platform was placed in the center of the third quadrant. A camera was arranged right above the water maze and used for recording the movement track of the mice. Mice were placed from the rearing room into a room for the water maze experiment for 1 hour before the start of each day of the experiment. The mice were trained for 7 consecutive days. The starting position was randomly changed among the four quadrants, the mice were allowed to explore freely for 1 minute, and the time required for the mice to find a lifesaving platform (also known as latency) was measured. If the mouse was able to find the platform within 1 minute, it was allowed to sit on the platform for 20 seconds, so that it can remember the location of the lifesaving platform based on surrounding markers. […] Each mouse was trained at 90-minute intervals each day and randomly placed in the water maze in three different quadrants each day to look for the lifesaving platform. After 4 hours after the last training on the 7th day, the lifesaving platform of the water maze was removed. The mice were put into water, and the time, the distance and the speed of the mice around the lifesaving platform within 1 minute and the number of shuttles at the position of the lifesaving platform were measured, thereby evaluating the short-term memory capacity of the mice. After 72 hours after the last training on the 7th day, the lifesaving platform of the water maze was removed again. The mice were put into water, and the time, the distance and the speed of the mice around the lifesaving platform within 1 minute and the number of shuttles at the position of the lifesaving platform were measured, thereby evaluating the long-term memory capacity of the mice. During the experiment, the surrounding environment of the water maze should be kept consistent to avoid the influence of environmental factors. The behavior of the mice was followed and videotaped throughout the experiment using SMART 3.0 software (Panlab HARVARD, MA, USA). […]

In test [5] the test system is Aβ plaques. The test is described as follows: Immunohistochemical staining of Aβ plaques with Aβ (4G8) antibodies. Type of test: in vivo. As to conditions: brain tissue of APP/PS1ΔE9 mouse, vs control group (A-C in FIG. 5).

This is an account of results in patent US12048680B2, “Use of Gemfibrozil and derivative thereof for treatment and/or prevention of neurodegenerative disease” (Kunming Institute of Zoology Chinese Academy of Sciences, priority 2018, dated 2024).

Each structure is given as a SMILES string.

`Cc1ccc(C)c(OCCCC(C)(C)C(=O)O)c1` [Gemfibrozil, 2,2-dimethyl-5-(2,5-dimethylphenoxy) pentanoic acid]: in test [1], the PSD-95 immunoreactivity result is recorded as “significantly up-regulated”. Besides, the anxiety symptoms entry in test [2] (vs control group) is given as “significantly alleviated”. Besides, the “lingering time in the open field central region” value in test [2] (vs control group (A, C in FIG. 2)) is on record as “significantly increased”. Besides, the “degree of co-localization of the marker Iba1 for microglia with Aβ plaques” value in test [3] (vs control APP/PS1ΔE9 mice (A-B in FIG. 6)) is recorded as “significantly increased”. In addition, the “degree of co-localization of GFAP for astrocytes with Aβ plaques” value in test [3] (vs control APP/PS1ΔE9 mice (C-D in FIG. 6)) was “significantly increased”. For the same molecule, the learning ability entry in test [4] (8-month-old APP/PS1ΔE9 mice, 50 μg/mL in drinking water for 2 months, 7 days of training, vs control group) is on record as “significantly improved”. In test [4] (4 hours after the last training, platform removed, vs control group), the short-term memory capacity entry is “significantly improved”. Also, in test [4] (72 hours after the last training, platform removed), the long-term memory capacity result is “significantly improved”. For the same molecule, in test [4] (APP/PS1ΔE9 mice, 50 μg/mL in drinking water for 2 months, training phase, vs control group (A in FIG. 1)), the “escape time (latency) required to reach the lifesaving platform” value is listed as “less than the control group”. Besides, the “range required to reach the lifesaving platform” value in test [4] (APP/PS1ΔE9 mice, 50 μg/mL in drinking water for 2 months, training phase, vs control group (B in FIG. 1)) is listed as “less than the control group”. The “lingering time in the target quadrant” value in test [4] (long-term memory, 72 hours after the last training (G in FIG. 1)) was “increase”; in test [4] (short-term memory, 4 hours after the last training (D in FIG. 1)), “increase”. Also, the “distance in the target quadrant” value in test [4] (long-term memory, 72 hours after the last training (H in FIG. 1)) is reported as “increase”; in test [4] (short-term memory, 4 hours after the last training (E in FIG. 1)) it was “increase”. The “number of shuttles at the position of the lifesaving platform” value in test [4] (long-term memory, 72 hours after the last training (I in FIG. 1)) is on record as “increases”; in test [4] (short-term memory, 4 hours after the last training (F in FIG. 1)), “increases”. The “deposition of Aβ plaques labeled with Aβ (4G8) antibodies” value in test [5] was “significantly reduced”.
